biological target: T1, human PAD4 (Homo sapiens, UniProt Q9UM07); test: In vitro PAD4 BAEE biochemical assay; conditions: human PAD4, BAEE substrate; 5 nM PAD4, 2 mM calcium chloride, 3 mM BAEE; geometric mean of multiple experiments
T1 construct: human PAD4 (NM_012387), A2P663, was PCR amplified; His-SUMO (N, cleaved yes); made in house; host or cells: E. coli BL21(DE3)
How it was run: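 Ammonia generated from BAEE serves as the readout, measured by o-phthalaldehyde after EDTA termination. Final conditions: 5 nM human PAD4 (SUMO tag cleaved), 2 mM CaCl2, 3 mM BAEE, pH 7.6 MOPS buffer, 25 °C for 2 h following a 30-min compound preincubation.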

T1 sequence (Q9UM07 2-663): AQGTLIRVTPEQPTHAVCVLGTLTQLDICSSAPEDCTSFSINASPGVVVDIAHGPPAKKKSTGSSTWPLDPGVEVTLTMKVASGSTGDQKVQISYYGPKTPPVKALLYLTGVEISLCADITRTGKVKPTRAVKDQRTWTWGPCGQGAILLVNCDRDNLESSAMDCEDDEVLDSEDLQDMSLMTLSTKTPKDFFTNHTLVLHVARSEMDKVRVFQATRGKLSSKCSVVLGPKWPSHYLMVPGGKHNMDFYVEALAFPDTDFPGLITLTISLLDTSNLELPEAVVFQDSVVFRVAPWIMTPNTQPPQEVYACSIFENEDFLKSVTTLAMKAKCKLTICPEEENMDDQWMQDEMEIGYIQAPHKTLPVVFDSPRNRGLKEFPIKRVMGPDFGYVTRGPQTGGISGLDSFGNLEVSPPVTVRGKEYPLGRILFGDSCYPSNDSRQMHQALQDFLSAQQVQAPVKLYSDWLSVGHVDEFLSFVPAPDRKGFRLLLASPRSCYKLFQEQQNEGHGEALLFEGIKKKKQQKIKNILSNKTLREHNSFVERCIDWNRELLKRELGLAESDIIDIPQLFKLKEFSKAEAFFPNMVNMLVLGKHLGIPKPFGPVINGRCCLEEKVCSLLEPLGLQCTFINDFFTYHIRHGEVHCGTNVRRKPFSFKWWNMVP

| Compound | IC50 |
| --- | --- |
| COc1cc(C(=O)N2[C@H]3CC[C@@H]2[C@H](N)C3)cc2nc(-c3cc4ccc([C@H](C)CC(=O)N5CCCC5)nc4n3CC3CC3)c(C)n12 [Example 522, (3~{R})-3-[2-[7-[(1~{R},2~{R},4~{S})-2-amino-7-azabicyclo[2.2.1]heptane-7-carbonyl]-5-methoxy-3-methylimidazo [1,2-a]pyridin-2-yl]-1-(cyclopropylmethyl)pyrrolo[2,3-b]pyridin-6-yl]-1-pyrrolidin-1-ylbutan-1-one] | 135 nM |
| COc1cc(C(=O)N2[C@H]3CC[C@@H]2[C@H](N)C3)cc2nc(-c3cc4ccc([C@@H](C)CC(=O)N5CCCC5)nc4n3CC3CC3)c(C)n12 [Example 523, (3~{S})-3-[2-[7-[(1~{R},2~{R},4~{S})-2-amino-7-azabicyclo[2.2.1]heptane-7-carbonyl]-5-methoxy-3-methylimidazo [1,2-a]pyridin-2-yl]-1-(cyclopropylmethyl)pyrrolo[2,3-b]pyridin-6-yl]-1-pyrrolidin-1-ylbutan-1-one] | 59.1 nM |
| CNC(=O)CC(C)c1ccc2cc(-c3nc4cc(C(=O)N5[C@H]6CC[C@@H]5[C@H](N)C6)cc(OC)n4c3C)n(CC3CC3)c2n1 (stereo partly drawn) [Example 524, 3-[2-[7-[(1~{R},2~{R}, 4~{S})-2-amino-7-azabicyclo[2.2.1]heptane-7-carbonyl]-5-methoxy-3-methylimidazo[1,2-a]pyridin-2-yl]-1-(cyclopropylmethyl)pyrrolo [2,3-b]pyridin-6-yl]-~{N}-methylbutanamide] | 78.9 nM |
| COc1cc(C(=O)N2[C@H]3CC[C@@H]2[C@H](N)C3)cc2nc(-c3cc4ccc(C5CCN(C(=O)N6CCCC6)CC5)nc4n3CC3CC3)c(C)n12 [Example 525, [(1~{R},2~{R},4~{S})-2-amino-7-azabicyclo [2.2.1]heptan-7-yl]-[2-[1-(cyclopropylmethyl)-6-[1-(pyrrolidine-1-carbonyl)piperidin-4-yl]pyrrolo [2,3-b]pyridin-2-yl]-5-methoxy-3-methylimidazo [1,2-a]pyridin-7-yl]methanone] | 228 nM |
| COc1cc(C(=O)N2[C@H]3CC[C@@H]2[C@H](N)C3)cc2nc(-c3cc4ccc(C5CCN(C(=O)C(C)(C)C)CC5)nc4n3CC3CC3)c(C)n12 [Example 526, 1-[4-[2-[7-[(1~{R},2~{R}, 4~{S})-2-amino-7-azabicyclo[2.2.1]heptane-7-carbonyl]-5-methoxy-3-methylimidazo[1,2-a]pyridin-2-yl]-1-(cyclopropylmethyl)pyrrolo [2,3-b]pyridin-6-yl]piperidin-1-yl]-2,2-dimethylpropan-1-one] | 458 nM |
| COc1cc(C(=O)N2[C@H]3CC[C@@H]2[C@H](N)C3)cc2nc(-c3cc4ccc(C5CCN(C(C)=O)CC5)nc4n3CC3CC3)c(C)n12 [Example 527, 1-[4-[2-[7-[(1~{R},2~{R}, 4~{S})-2-amino-7-azabicyclo[2.2.1]heptane-7-carbonyl]-5-methoxy-3-methylimidazo[1,2-a]pyridin-2-yl]-1-(cyclopropylmethyl)pyrrolo [2,3-b]pyridin-6-yl]piperidin-1-yl] ethenone] | 220 nM |
| COc1cc(C(=O)N2[C@H]3CC[C@@H]2[C@H](N)C3)cc2nc(-c3cc4ccc(C(C)CC(=O)N5CCCC5)nc4n3CC3CC3)c(C)n12 (stereo partly drawn) [Example 528, 3-[2-[7-[(1~{R},2~{R}, 4~{S})-2-amino-7-azabicyclo[2.2.1]heptane-7-carbonyl]-5-methoxy-3-methylimidazo[1,2-a]pyridin-2-yl]-1-(cyclopropylmethyl)pyrrolo [2,3-b]pyridin-6-yl]-1-pyrrolidin-1-ylbutan-1-one] | 64.3 nM |
| COc1cc(C(=O)N2[C@H]3CC[C@@H]2[C@H](N)C3)cc2nc(-c3cc4ccc(C5CCN(C(=O)N6CCCC6)C5)nc4n3CC3CC3)c(C)n12 (stereo partly drawn) [Example 529, [(1~{R},2~{R},4~{S})-2-amino-7-azabicyclo [2.2.1]heptan-7-yl]-[2-[1-(cyclopropylmethyl)-6-[1-(pyrrolidine-1-carbonyl)pyrrolidin-3-yl]pyrrolo [2,3-b]pyridin-2-yl]-5-methoxy-3-methylimidazo [1,2-a]pyridin-7-yl] methanone] | 151 nM |
| COc1cc(C(=O)N2[C@H]3CC[C@@H]2[C@H](N)C3)cc2nc(-c3cc4ccc(C5CCN(C(=O)C(C)(C)C)C5)nc4n3CC3CC3)c(C)n12 (stereo partly drawn) [Example 530, 1-[3-[2-[7-[(1~{R},2~{R}, 4~{S})-2-amino-7-azabicyclo[2.2.1]heptane-7-carbonyl]-5-methoxy-3-methylimidazo[1,2-a]pyridin-2-yl]-1-(cyclopropylmethyl)pyrrolo [2,3-b]pyridin-6-yl]pyrrolidin-1-yl]-2,2-dimethylpropan-1-one] | 274 nM |
| COc1cc(C(=O)N2[C@H]3CC[C@@H]2[C@H](N)C3)cc2nc(-c3cc4ccc(C5CCN(C(C)=O)C5)nc4n3CC3CC3)c(C)n12 (stereo partly drawn) [Example 531] | 134 nM |
| COc1cc(C(=O)N2CCC[C@@H](N)C2)cc2nc(-c3cc4ccc(CCC(=O)N(C)C)nc4n3CC3CC3)c(C)n12 [Example 532, 3-[2-[7-[(3~{R})-3-aminopiperidine-1-carbonyl]-5-methoxy-3-methylimidazo[1,2-a]pyridin-2-yl]-1-(cyclopropylmethyl)pyrrolo[2,3-b]pyridin-6-yl]-~{N},~{N}-dimethylpropanamide] | 1480 nM |
| COc1cc(C(=O)N2CCC[C@@H](N)C2)cc2nc(-c3cc4ccc(C5CC5C(=O)N(C)C)nc4n3CC3CC3)c(C)n12 (stereo partly drawn) [Example 533, 2-[2-[7-[(3~{R})-3-aminopiperidine-1-carbonyl]-5-methoxy-3-methylimidazo[1,2-a]pyridin-2-yl]-1-(cyclopropylmethyl)pyrrolo[2,3-b]pyridin-6-yl]-~{N},~{N}-dimethylcyclopropane-1-carboxamide] | 933 nM |
| COc1cc(C(=O)N2CCC[C@@H](N)C2)cc2nc(-c3cc4ccc([C@H](C)CC(=O)N(C)C)nc4n3CC3CC3)c(C)n12 [Example 534, (3~{R})-3-[2-[7-[(3~{R})-3-aminopiperidine-1-carbonyl]-5-methoxy-3-methylimidazo[1,2-a]pyridin-2-yl]-1-(cyclopropylmethyl)pyrrolo[2,3-b]pyridin-6-yl]-~{N},~{N}-dimethylbutanamide] | 140 nM |
| COc1cc(C(=O)N2CCC[C@@H](N)C2)cc2nc(-c3cc4ccc([C@@H](C)CC(=O)N(C)C)nc4n3CC3CC3)c(C)n12 [Example 535, (3~{S})-3-[2-[7-[(3~{R})-3-aminopiperidine-1-carbonyl]-5-methoxy-3-methylimidazo[1,2-a]pyridin-2-yl]-1-(cyclopropylmethyl)pyrrolo [2,3-b]pyridin-6-yl]-~{N},~{N}-dimethylbutanamide] | 305 nM |

Results, then the compound that gave them:

| IC50 | Compound |
| --- | --- |
| 128 nM | COc1cc(C(=O)N2CCC[C@@H](N)C2)cc2nc(-c3cc4ccc(C(C)CC(=O)N(C)C)nc4n3CC3CC3)c(C)n12 (stereo partly drawn) [Example 536, 3-[2-[7-[(3~{R})-3-aminopiperidine-1-carbonyl]-5-methoxy-3-methylimidazo[1,2-a]pyridin-2-yl]-1-(cyclopropylmethyl)pyrrolo[2,3-b]pyridin-6-yl]-~{N},~{N}-dimethylbutanamide] |
| 571 nM | COc1cc(C(=O)N2CCC[C@@H](N)C2)cc2nc(-c3cc4ccc(C(C)n5ccnn5)nc4n3CC3CC3)c(C)n12 (stereo partly drawn) [Example 537, [(3~{R})-3-aminopiperidin-1-yl]-[2-[1-(cyclopropylmethyl)-6-[1-(triazol-1-yl)ethyl]pyrrolo[2,3-b]pyridin-2-yl]-5-methoxy-3-methylimidazo[1,2-a]pyridin-7-yl]methanone] |
| 175 nM | COc1cc(C(=O)N2[C@H]3CC[C@@H]2[C@H](N)C3)cc2nc(-c3cc4ccc(C(C)(C)CC(=O)N5CC(F)(F)C5)nc4n3CC3CC3)c(C)n12 [Example 538, 3-[2-[7-[(1~{R},2~{R}, 4~{S})-2-amino-7-azabicyclo[2.2.1]heptane-7-carbonyl]-5-methoxy-3-methylimidazo[1,2-a]pyridin-2-yl]-1-(cyclopropylmethyl)pyrrolo [2,3-b]pyridin-6-yl]-1-(3,3-difluoroazetidin-1-yl)-3-methylbutan-1-one] |
| 58.6 nM | CNC(=O)CC(C)(C)c1ccc2cc(-c3nc4cc(C(=O)N5[C@H]6CC[C@@H]5[C@H](N)C6)cc(OC)n4c3C)n(CC3CC3)c2n1 [Example 539, 3-[2-[7-[(1~{R},2~{R}, 4~{S})-2-amino-7-azabicyclo[2.2.1]heptane-7-carbonyl]-5-methoxy-3-methylimidazo[1,2-a]pyridin-2-yl]-1-(cyclopropylmethyl)pyrrolo[2,3-b]pyridin-6-yl]-~{N},3-dimethylbutanamide] |
| 102 nM | CCC(CC(=O)N1CCCC1)c1ccc2cc(-c3nc4cc(C(=O)N5[C@H]6CC[C@@H]5[C@H](N)C6)cc(OC)n4c3C)n(CC3CC3)c2n1 (stereo partly drawn) [Example 540, 3-[2-[7-[(1~{R},2~{R}, 4~{S})-2-amino-7-azabicyclo[2.2.1]heptane-7-carbonyl]-5-methoxy-3-methylimidazo[1,2-a]pyridin-2-yl]-1-(cyclopropylmethyl)pyrrolo[2,3-b]pyridin-6-yl]-1-pyrrolidin-1-ylpentan-1-one] |
| 270 nM | CCCC(CC(=O)N1CCCC1)c1ccc2cc(-c3nc4cc(C(=O)N5[C@H]6CC[C@@H]5[C@H](N)C6)cc(OC)n4c3C)n(CC3CC3)c2n1 (stereo partly drawn) [Example 541, 3-[2-[7-[(1~{R},2~{R}, 4~{S})-2-amino-7-azabicyclo[2.2.1]heptane-7-carbonyl]-5-methoxy-3-methylimidazo[1,2-a]pyridin-2-yl]-1-(cyclopropylmethyl)pyrrolo [2,3-b]pyridin-6-yl]-1-pyrrolidin-1-ylhexan-1-one] |
| 119 nM | COc1cc(C(=O)N2[C@H]3CC[C@@H]2[C@H](N)C3)cc2nc(-c3cc4ccc(C(CC(=O)N5CCCC5)C5CC5)nc4n3CC3CC3)c(C)n12 (stereo partly drawn) [Example 542, 3-[2-[7-[(1~{R},2~{R}, 4~{S})-2-amino-7-azabicyclo[2.2.1]heptane-7-carbonyl]-5-methoxy-3-methylimidazo[1,2-a]pyridin-2-yl]-1-(cyclopropylmethyl)pyrrolo[2,3-b]pyridin-6-yl]-3-cyclopropyl-1-pyrrolidin-1-ylpropan-1-one] |

From patent publication US12240862B2, “Inhibitors of peptidylarginine deiminases” (Gilead Sciences, Inc., priority 2020, dated 2025)
